Reference: patent US8198284B2, “Treatment of neurodegenerative disorders with thiourea compounds” (National Health Research Institutes, priority 2008, dated 2012)

Tests used:
Format in all cases: cell-based
Microglia = assay: Enhancement of microglial Aβ clearance and phagocytosis in vitro; details: n=6, p<0.001
Protocol: Compounds were evaluated for their efficacy in enhancing microglial phagocytosis of Aβ (or Aβ clearance). […] Lipopolysaccharide (LPS) at 10 ng/mL was added as a positive control, which is known to increase Aβ uptake. The culture medium was subjected to Western blotting for evaluating residual Aβ left in the medium. The mean values of fluorescent intensity measured by flow cytometer were compared between cells pretreated with the test compound and the ones in non-treated controls.

iNOS = assay: Anti-inflammatory activity: LPS-induced iNOS expression (Western blotting)
Protocol: (§1) Compounds were evaluated for their efficacy in suppressing microglial immune activation by measuring their potency against LPS-induced expression of iNOS and COX-2 and IL-6 secretion. Microglia and Raw 264.7 cells (a microglia-like cell line) were pretreated with a test compound at various doses for 1 hr followed by 24 hr treatment of LPS (10 ng/ml). Cell lysates were subjected to Western blotting for iNOS and COX-2 evaluation. IL-6 secretion was measured from resulting culture medium by ELISA.

COX-2 = assay: Anti-inflammatory activity: LPS-induced COX-2 expression (Western blotting)
Protocol: as §1

IL-6 = assay: Anti-inflammatory activity: LPS-induced IL-6 secretion (ELISA)
Protocol: as §1

[1] = tested on: Hippocampal organotypic cultures; assay: Neuro-protection against LPS toxicity in hippocampal organotypic cultures; details: pre-treatment, then LPS 10 ng/mL for 24 hr; Western blotting
Protocol: Compounds were evaluated for their efficacy in suppressing microglia-mediated neurotoxicity. Hippocampal organotypic cultures were established to serve as an ex vivo model for evaluation of hippocampal functions. Pre-treatment of the cultures with a test compound was followed by addition of LPS (10 ng/mL) for 24 hr. Hippocampal tissues were harvested and subjected to Western blotting for measuring synaptophysin and post synaptic density protein (PSD)95 levels, the indications for neuronal synatic functions.

[2] = dose dependent, β-actin unchanged

- IC50 (iNOS; Mus musculus, RAW264.7, 1 hr pretreatment, then LPS 10 ng/ml for 24 hr, microglia and Raw 264.7 cells, read-out: Effective dose to show at least 50% suppression (IC50) for iNOS): 1 µM
- IC50 (COX-2; Mus musculus, RAW264.7, 1 hr pretreatment, then LPS 10 ng/ml for 24 hr, microglia and Raw 264.7 cells, read-out: Effective dose to show at least 50% suppression (IC50) for COX-2): 50 µM
- IC50 (IL-6; 1 hr pretreatment, then LPS 10 ng/ml for 24 hr, secretion by microglia, read-out: Effective dose to show at least 50% suppression (IC50) for IL-6): 20 µM
Compound: NC(=S)Nc1cccc(OCCCCCNC(=S)Nc2cccc3ccccc23)c1 [Compound 1, 1-naphthalen-1-yl-3-[5-(3-thioureido-phenoxy)-pentyl]-thiourea]
- increase of Aβ uptake as compared to the controls (Microglia; compound at 10 μM): approximately 29%
- increase of Aβ uptake as compared to the controls (Microglia; compound at 20 μM): ~44%
- increase of Aβ uptake as compared to the controls (Microglia; compound at 50 μM): ~128%
- LPS-induced iNOS expression (iNOS; [2]): significant suppression
- LPS-induced COX-2 expression (COX-2; [2]): significant suppression
- LPS-induced IL-6 secretion by microglia (IL-6; dose dependent): inhibited
- LPS-induced reduction of PSD95 level [1]: prevented LPS-induced reduction
- LPS-induced reduction of synaptophysin level [1]: prevented LPS-induced reduction
